Assay results reported in patent US20260240826A1, “COMPOSITIONS FOR PD-L1 INHIBITION AND METHODS OF USE THEREOF” (ARIZONA BOARD OF REGENTS ON BEHALF OF THE UNIVERSITY OF …, priority 2023, published 2026).

Tested on: AP-1 luciferase SKH-1 reporter mice
Assay: AP-1 SKH-1 reporter mouse bioluminescence
Format: in vivo
Settings: topical 8 mM; imaged 24 hr after UVB
Description: UVB exposure was performed on AP-1 luciferase reporter mice on the SKH-1 genetic background at a dose of 2.75 kJ/m2 using FS40 bulbs (Q-Lab Corporation) as described before with the modification that mice were imaged 24 hr post UVB exposure using whole body bioluminescence instead of 48 hr post UVB using ear punches. SSL irradiation of SKH-1 mice (Charles River Laboratories, strain code 477) at a dose of 90 kJ/m2 UVA/6 kJ/m2 UVB was performed using UVA-340 bulbs (Q-Lab Corporation) as described before.
Male transgenic SKH-1 mice heterozygous for the TPA-Response Element (TRE)-driven luciferase transgene (“AP-1 luciferase” mice, n=3) were treated topically on their backs with 200 μL of 8 mM BMS-202 or vehicle control (acetone). For all mice receiving BMS-202, the compound was applied twice before (24 hr and 1 hr) as well as immediately after UV exposure, a dose regimen ensuring efficient target modulation, similar to topical non-sunscreen photoprotection approaches. Mice were injected i.p. with luciferin (potassium salt) stock solution in PBS without magnesium or calcium at a dose of <150 mg/kg of body weight 24 hr after UV exposure and imaged (Lago instrument, Spectral Instruments Imaging) with Aura software analysis.

## COc1nc(OCc2cccc(-c3ccccc3)c2C)ccc1CNCCNC(C)=O [BMS-202]
  attenuation in bioluminescent signal intensity (UV-induced AP-1 stress response): ~5 fold
